What was measured:
LD from human liver [1] = biological target: T1, LD from human liver (Homo sapiens, UniProt P00338); conditions: previously reported, mean ± 2 SD; cited from earlier work
T1 construct: Human tissue extracts were prepared by sonic disruption; from tissue; host or cells: human liver, crude extract (sonicated, supernatant of centrifugation)

LD from human heart [2] = biological target: T2, LD from human heart (Homo sapiens, UniProt P07195); assay: Inhibition of LD activity in human heart extract by high pyruvate, without preincubation (present method); assay type: biochemical
T2 construct: Human tissue extracts were prepared by sonic disruption; from tissue; host or cells: human heart, crude extract (sonicated, supernatant of centrifugation)
T2 sequence (P07195 2-334): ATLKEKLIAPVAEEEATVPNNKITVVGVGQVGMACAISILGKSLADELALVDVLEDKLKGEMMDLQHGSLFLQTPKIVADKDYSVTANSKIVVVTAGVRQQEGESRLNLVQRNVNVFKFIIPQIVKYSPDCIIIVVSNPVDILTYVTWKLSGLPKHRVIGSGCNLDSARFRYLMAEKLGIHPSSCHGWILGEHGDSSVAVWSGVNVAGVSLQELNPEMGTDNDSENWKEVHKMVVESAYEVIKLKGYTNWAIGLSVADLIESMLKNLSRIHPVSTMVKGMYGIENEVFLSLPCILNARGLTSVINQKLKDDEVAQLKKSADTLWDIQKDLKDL
Experimental: (§1) Preparation of tissue. Human tissue extracts were prepared by sonic disruption (at 4° l C. for 1 min.) of 1 g (wet weight) of tissue in 9 ml of potassium phosphate buffer (0.1 mol/liter, pH 7.0). The homogenates were centrifuged at 4° C. at 5×10^4 g for 10 min.; and the superiors were promptly examined for LD activity and stored at -80° C.
(§2) Assay for total LD activity. The measurements were at 340 nm and 25° C. in a Model 240 (Gilford Instrument, Oberlin, Ohio 44074) digital kinetic spectrophotometer when manual determinations were needed to supply data for calibration curves with purified enzymes or with tissue extracts, and for serum assays in the preliminary stages of developing the method. Sera were assayed at 25° C. in a centrifugal analyzer (GEMSAEC; Electronucleonics, Inc., Fairfield, N.J. 07006) after the optimum conditions were known to be suitable for manual determinations. For automated determinations 500 ul of pyruvate reaction mixture and 50 ul of serum (an 11-fold dilution of the serum) were required. Conditions for measuring total LD activity were: 0.34 mmol of pyruvate and 0.13 mmcl of NADH per liter of the phosphate buffer. The molar absorptivity 6.22×10^3 liter mol^-1 cm^-1 for NADH was used in calculating enzyme activity in IUB units.
(§3) Kinetic determination of isoenzymes. LD's are inhibited by their substrate, the H-type LD being inhibited by pyruvate to a greater extent than the M-type LD. This inhibition, related to the formation of an abortive ternary complex, was the basis of the method that has been used to distinguish the heart enzyme from the muscle enzyme after preincubation. […]

LD from human liver [3] = biological target: T1, LD from human liver; assay: Inhibition of LD activity in human liver extract by high pyruvate, without preincubation (present method); assay type: biochemical
Experimental: as §1, §2, §3

LD from human muscle [4] = conditions: previously reported, mean ± 2 SD; cited from earlier work
LD from human brain [5] = conditions: previously reported, mean ± 2 SD; cited from earlier work
LD from human kidney [6] = conditions: previously reported, mean ± 2 SD; cited from earlier work
H-type LD = assay: Kinetic determination of isoenzymes: inhibition of human H-type LD without preincubation; assay type: biochemical; conditions: 5 mmol pyruvate and 0.13 mmol NADH per liter, phosphate buffer pH 7.0
Experimental: (§4) Kinetic determination of isoenzymes. LD's are inhibited by their substrate, the H-type LD being inhibited by pyruvate to a greater extent than the M-type LD. This inhibition, related to the formation of an abortive ternary complex, was the basis of the method that has been used to distinguish the heart enzyme from the muscle enzyme after preincubation.
(§5) Conditions for inhibiting the human LD activity without any preincubation were: 5 mmol of pyruvate and 0.13 mmol of NADH per liter of 100 l mmol/liter potassium phosphate buffer, pH 7.0.

LD from human brain [7] = assay: Inhibition of human brain LD, present method; assay type: biochemical; conditions: mean ± 2 SD, at least seven sources
Experimental: as §1, §2
(§6) Kinetic determination of isoenzymes. […]

chicken heart LD = chicken heart LD (Gallus gallus, UniProt P00337); assay: Inhibition of chicken heart LD by pyruvate; assay type: biochemical; conditions: 3.4 mmol/liter pyruvate
chicken heart LD, sequence (P00337 whole entry): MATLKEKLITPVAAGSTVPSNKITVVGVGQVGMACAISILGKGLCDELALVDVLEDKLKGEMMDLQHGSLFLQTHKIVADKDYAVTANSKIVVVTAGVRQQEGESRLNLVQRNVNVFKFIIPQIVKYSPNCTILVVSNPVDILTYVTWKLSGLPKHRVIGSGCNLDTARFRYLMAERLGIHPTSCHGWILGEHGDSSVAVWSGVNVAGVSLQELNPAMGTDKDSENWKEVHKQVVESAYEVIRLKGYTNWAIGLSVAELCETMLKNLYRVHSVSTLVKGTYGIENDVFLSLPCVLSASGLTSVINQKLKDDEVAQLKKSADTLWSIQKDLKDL
Experimental: as §2
(§7) Assay conditions. Studies of the pH dependence of the inhibition of chicken heart LD at an initial substrate concentration of 3.4 mmol/liter pyruvate (control rate, 0.1 absorbance unit change per minute at 0.34 mmol/liter pyruvate) indicated the pH for maximum inhibition of LD activity to be pH 7, although pH 6.5 was also suitable for the inhibition. […]

LD from human muscle [8] = assay: Inhibition of human muscle LD, present method; assay type: biochemical; conditions: mean ± 2 SD, at least seven sources
Experimental: as §1, §2, §6

LD from human spleen [9] = assay: Inhibition of human spleen LD, present method; assay type: biochemical; conditions: mean ± 2 SD, at least seven sources
Experimental: as §1, §2, §6

LD from human heart [10] = biological target: T2, LD from human heart; conditions: previously reported, mean ± 2 SD; cited from earlier work
LD from human spleen [11] = conditions: previously reported, mean ± 2 SD; cited from earlier work
LD from human kidney [12] = assay: Inhibition of human kidney LD, present method; assay type: biochemical; conditions: mean ± 2 SD, at least seven sources
Experimental: as §1, §2, §6

rabbit muscle LD = assay: Activity/inhibition of crystalline rabbit muscle LD at high pyruvate; assay type: biochemical
Experimental: as §2, §7

M-type LD = assay: Kinetic determination of isoenzymes: inhibition of human M-type LD without preincubation; assay type: biochemical; conditions: 5 mmol pyruvate and 0.13 mmol NADH per liter, phosphate buffer pH 7.0
Experimental: as §4, §5

[13] = present method, mean ± 2 SD, at least seven sources

SMILES: CC(=O)C(=O)[O-].[Na+] [pyruvate, Sodium pyruvate]
- Percent inhibition, Preincubation method, Liver (LD from human liver [1]): 18.3 ± 10.0%
- Percent inhibition, Heart (LD from human heart [2]; 5 mmol/liter pyruvate, pH 6): 90%
- Percent inhibition, Heart (LD from human heart [2]; 5 mmol/liter pyruvate, pH 7): 69%
- Percent inhibition, Heart (LD from human heart [2]; 5 mmol/liter pyruvate, pH 8): 40%
- Percent inhibition, Heart (LD from human heart [2]; 10 mmol/liter pyruvate, pH 6): 91%
- Percent inhibition, Heart (LD from human heart [2]; 10 mmol/liter pyruvate, pH 7): 79%
- Percent inhibition, Heart (LD from human heart [2]; 10 mmol/liter pyruvate, pH 8): 50%
- Percent inhibition, Present method, Heart (LD from human heart [2]; [13]): 60.8 ± 10.8%
- Percent inhibition, Liver (LD from human liver [3]; 5 mmol/liter pyruvate, pH 6): 53%
- Percent inhibition, Liver (LD from human liver [3]; 5 mmol/liter pyruvate, pH 7): 20%
- Percent inhibition, Liver (LD from human liver [3]; 5 mmol/liter pyruvate, pH 8, negative sign = increased rate): -19%
- Percent inhibition, Liver (LD from human liver [3]; 10 mmol/liter pyruvate, pH 6): 65%
- Percent inhibition, Liver (LD from human liver [3]; 10 mmol/liter pyruvate, pH 7): 50%
- Percent inhibition, Liver (LD from human liver [3]; 10 mmol/liter pyruvate, pH 8, negative sign = increased rate): -14%
- Percent inhibition, Present method, Liver (LD from human liver [3]; [13]): 17.6 ± 11.8%
- Percent inhibition, Preincubation method, Muscle (LD from human muscle [4]): 17.3 ± 12.2%
- Percent inhibition, Preincubation method, Brain (LD from human brain [5]): 59.0 ± 6.6%
- Percent inhibition, Preincubation method, Kidney (LD from human kidney [6]): 53.0 ± 15.1%
- inhibition of the H-type LD (H-type LD): more than 50%
- Percent inhibition, Present method, Brain (LD from human brain [7]): 50.6 ± 8.4%
- pH for maximum inhibition of LD activity (chicken heart LD): 7
- inhibition of chicken heart LD (chicken heart LD; pH 8 and above): no inhibition was seen
- Percent inhibition, Present method, Muscle (LD from human muscle [8]): 16.1 ± 11.8%
- Percent inhibition, Present method, Spleen (LD from human spleen [9]): 43.5 ± 9.0%
- Percent inhibition, Preincubation method, Heart (LD from human heart [10]): 61.1 ± 8.3%
- Percent inhibition, Preincubation method, Spleen (LD from human spleen [11]): 41.3 ± 8.5%
- Percent inhibition, Present method, Kidney (LD from human kidney [12]): 53.1 ± 5.0%
- reaction rate, % of the maximum velocity (rabbit muscle LD; 3.4 mmol/liter pyruvate): 114%
- inhibition of rabbit muscle LD (rabbit muscle LD; 10 mmol/liter pyruvate): 2%
- inhibition of the M-type LD (M-type LD): slight inhibition

From patent US4311791A, “Automated kinetic determination of lactate dehydrogenase isoenzymes in serum” (priority 1980, dated 1982)
